The values that follow come from patent US6528525B1, “Amidocarboxylic acid derivatives” (Sankyo Company, Limited, priority 1998, dated 2003).

Structures are written as SMILES.

The first experiment concerns hyperglycemic male KK mice. Briefly: Action in depressing blood glucose (Method 1). It counts as in vivo. The settings on record: Mus musculus, po, 72 h, compound admixed with powder feed at 0.01% (ca. 10 mg/kg/day) for three days, plasma glucose vs control group, read-out: Rate of hypoglycemic activity (%) (blood glucose depression rate). The protocol: Action in Depressing Blood Glucose (Method 1)
Each compound, admixed with powder feed F-2 (Funabashi Farm) was administered to hyperglycemic male KK mice each having a body weight of 40 g or more at a rate of 0.01% (ca. 10 mg/kg/day) for three days. Meanwhile, mice of a control group were fed with the powder feed only. Then, a blood sample was collected from the caudal vein of each mouse under no anesthesia and centrifuged. The blood glucose in the plasma thus obtained was determined using Glucoloader F (Product of A & T Co., Ltd.).
The blood glucose depression rate were estimated from the following equation:
Blood glucose depression rate (%)=[(Blood glucose in Control group−Blood glucose in administered group)/Blood glucose in Control group]×100
As for `CCOC(Cc1ccc(OCCNC(=O)c2ccc(-c3ccccn3)cc2)cc1)C(=O)O` (centres unmarked) [Example 2, Sodium 2-ethoxy-3-[4-[2-(4-pyridine-2-ylbenzoylamino)ethoxy]phenyl]propionate], the inhibition in vivo at 10 mg/kg/day was 43%.

Turning to `O=C(NCCOc1ccc(CC(CCCc2ccccc2)C(=O)O)cc1)c1ccc(-c2ccccn2)cc1` (centres unmarked) [Example 4, 2-(3-phenylpropyl)-3-[4-[2-(4-pyridine-2-ylbenzoylamino)ethoxy]phenyl]propionic acid], the inhibition in vivo at 10 mg/kg/day was found to be 15%.

`CC(C)c1ccc(OC(Cc2ccc(OCCNC(=O)c3ccc(-c4ccccn4)cc3)cc2)C(=O)O)cc1` (centres unmarked) [Example 10, 2-(4-isopropylphenoxy)-3-[4-[2-(4-pyridine-2-ylbenzoylamino)ethoxy]phenyl]propionic acid]: the inhibition in vivo at 10 mg/kg/day is 64%.

Take `CCCCC(Cc1ccc(OCCNC(=O)c2ccc(-c3ccccn3)cc2)cc1)C(=O)O` (centres unmarked) [Example 12, 2-butyl-3-[4-[2-(4-pyridine-2-ylbenzoylamino)ethoxy]phenyl]propionic acid]: the inhibition in vivo at 10 mg/kg/day amounted to 42%.

`CC(Cc1ccc(OCCNC(=O)c2ccc(-c3ccccn3)cc2)cc1)(Oc1ccccc1)C(=O)O` (centres unmarked) [Example 16, 2-Methyl-2-phenoxy-3-[4-[2-(4-pyridine-2-ylbenzoylamino)ethoxy]phenyl]propionic acid]: the inhibition in vivo at 10 mg/kg/day came to 64%.

With `CC(C)c1ccc(OC(C)(Cc2ccc(OCCNC(=O)c3ccc(-c4ccccn4)cc3)cc2)C(=O)O)cc1` (centres unmarked) [Example 18, 2-(4-Isopropylphenoxy)-2-methyl-3-[4-[2-(4-pyridine-2-ylbenzoylamino)ethoxy]phenyl]propionic acid], the inhibition in vivo at 10 mg/kg/day was determined as 68%.

In the case of `CCCCC(Cc1ccc(OCCNC(=O)c2ccc(-c3ccccc3)cc2)cc1)C(=O)O` (centres unmarked) [Example 22, 3-[4-[2-(Biphenyl-4-carbonylamino)ethoxy]phenyl]-2-butylpropionic acid], the inhibition in vivo at 10 mg/kg/day came out at 17%.

Regarding `CCCCC(Cc1ccc(OCCNC(=O)c2ccc(-c3ccc(C=O)cc3)cc2)cc1)C(=O)O` (centres unmarked) [Example 27, 2-Butyl-3-[4-[2-(4′-formylbiphenyl-4-carbonylamino)ethoxy]phenyl]propionic acid], the inhibition in vivo at 10 mg/kg/day stood at 35%.

Turning to `CCCCC(Cc1ccc(OCCNC(=O)c2ccc(-c3ccc(CN(C)C)cc3)cc2)cc1)C(=O)O` (centres unmarked) [Example 29, 2-Butyl-3-[4-[2-(4′-dimethylaminomethylbiphenyl-4-carbonyl-amino)ethoxy]phenyl]propionic acid], the inhibition in vivo at 10 mg/kg/day is 20%.

As for `CCCCC(Cc1ccc(OCCNC(=O)c2ccc(-c3ccc(C(=O)O)cc3)cc2)cc1)C(=O)O` (centres unmarked) [Example 30, 2-Butyl-3-[4-[2-(4′-carboxybiphenyl-4-carbonylamino)ethoxy]phenyl]propionic acid], the inhibition in vivo at 10 mg/kg/day stood at 18%.

As for `CCCCC(Cc1ccc(OCCNC(=O)c2ccc(-c3cccc(OC)c3)cc2)cc1)C(=O)O` (centres unmarked) [Example 32, 2-Butyl-3-[4-[2-(3′-methoxybiphenyl-4-carbonylamino)ethoxy]phenyl]propionic acid], the inhibition in vivo at 10 mg/kg/day was 21%.

For the compound `CCCCC(Cc1ccc(OCCNC(=O)c2ccc(-c3cccc(O)c3)cc2)cc1)C(=O)O` (centres unmarked) [Example 34, 2-Butyl-3-[4-[2-(3′-hydroxybiphenyl-4-carbonylamino)ethoxy]phenyl]propionic acid], the inhibition in vivo at 10 mg/kg/day was determined as 22%.

Regarding `CCCCC(Cc1ccc(OCCNC(=O)c2ccc(-c3ccccc3OC)cc2)cc1)C(=O)O` (centres unmarked) [Example 43, 2-Butyl-3-[4-[2-(2′-methoxybiphenyl-4-carbonylamino)ethoxy]phenyl]propionic acid], the inhibition in vivo at 10 mg/kg/day was 20%.

Take `CCCCC(Cc1ccc(OCCNC(=O)c2ccc(-c3cc(C)c(O)c(C)c3)cc2)cc1)C(=O)O` (centres unmarked) [Example 48, Sodium 2-butyl-3-[4-[2-(4′-hydroxy-3′, 5′-dimethylbiphenyl-4-carbonylamino)ethoxy]phenyl]propionate]: the inhibition in vivo at 10 mg/kg/day is 37%.

For `CCCCC(Cc1ccc(OCCNC(=O)c2ccc(OC)nc2)cc1)C(=O)O` (centres unmarked) [Example 52, 2-Butyl-3-[4-[2-(2-methoxypyridine-5-carbonylamino)ethoxy]phenyl]propionic acid], the inhibition in vivo at 10 mg/kg/day was 20%.

For `CCCCC(Cc1ccc(OCCCNC(=O)c2ccc(-c3ccccn3)cc2)cc1)C(=O)O` (centres unmarked) [Example 70, 2-Butyl-3-[4-[3-(4-pyridine-2-ylbenzoylamino)propoxy]phenyl]propionic acid], the inhibition in vivo at 10 mg/kg/day was found to be 23%.

As for `CCCC(Cc1ccc(OCCNC(=O)c2ccc(-c3ccccn3)cc2)cc1)C(=O)O` (centres unmarked) [Example 74, 2-Propyl-3-[4-[2-(4-pyridine-2-ylbenzoylamino)ethoxy]phenyl]propionic acid], the inhibition in vivo at 10 mg/kg/day worked out at 60%.

Regarding `O=C(NCCOc1ccc(CC(Oc2ccccc2)C(=O)O)cc1)c1ccc(-c2ccccc2)cc1` (centres unmarked) [Example 76, 3-[4-[2-(Biphenyl-4-carbonylamino)ethoxy]phenyl]-2-phenoxypropionic acid], the inhibition in vivo at 10 mg/kg/day was 50%.

Consider `O=C(NCCOc1ccc(CC(Oc2ccccc2)C(=O)O)cc1)c1ccc(-c2ccc(F)cc2)cc1` (centres unmarked) [Example 78, 3-[4-[2-(4′-Fluorobiphenyl-4-carbonylamino)ethoxy]phenyl]-2-phenoxypropionic acid], for which the inhibition in vivo at 10 mg/kg/day turned out to be 53%.

Turning to `O=C(NCCOc1ccc(CC(Oc2ccccc2)C(=O)O)cc1)c1ccc(-c2ccc(Cl)cc2)cc1` (centres unmarked) [Example 80, 3-[4-[2-(4′-Chlorobiphenyl-4-carbonylamino)ethoxy]phenyl]-2-phenoxypropionic acid], the inhibition in vivo at 10 mg/kg/day came to 50%.

As to `O=C(NCCOc1ccc(CC(Oc2ccccc2)C(=O)O)cc1)c1ccc(-c2ccc(C(F)(F)F)cc2)cc1` (centres unmarked) [Example 82, 3-[4-[2-(4′-Trifluoromethylbiphenyl-4-carbonylamino)ethoxy]phenyl]-2-phenoxypropionic acid], the inhibition in vivo at 10 mg/kg/day is 32%.

For `CC(C)c1ccc(OC(Cc2ccc(OCCNC(=O)c3ccc(-c4ccccc4)nc3)cc2)C(=O)O)cc1` (centres unmarked) [Example 97, 2-(4-Isopropylphenoxy)-3-[4-[2-(2-phenylpyridine-5-carbonylamino)ethoxy]phenyl]propionic acid], the inhibition in vivo at 10 mg/kg/day was 66%.

For `COc1ccc(-c2ccc(C(=O)NCCOc3ccc(CC(Oc4ccc(C(C)C)cc4)C(=O)O)cc3)cn2)cc1` (centres unmarked) [Example 99, 2-(4-Isopropylphenoxy)-3-[4-[2-[2-(4-methoxyphenyl)pyridine-5-carbonylamino]ethoxy]phenyl]propionic acid], the inhibition in vivo at 10 mg/kg/day is 57%.

For the compound `CC(C)c1ccc(OC(Cc2ccc(OCCNC(=O)c3ccc(-c4ccc(F)cc4)nc3)cc2)C(=O)O)cc1` (centres unmarked) [Example 101, 3-[4-[2-[2-(4-Fluorophenyl)pyridine-5-carbonylamino]ethoxy]phenyl]-2-(4-isopropylphenoxy)propionic acid], the inhibition in vivo at 10 mg/kg/day was determined as 51%.

Regarding `CC(C)c1ccc(OC(Cc2ccc(OCCNC(=O)c3ccc(OCC(F)(F)C(F)F)nc3)cc2)C(=O)O)cc1` (centres unmarked) [Example 103, Sodium 3-[4-[2-[2-(2,2,3,3-tetrafluoropropoxy)pyridine-5-carbonylamino]ethoxy]phenyl]-2-(4-isopropylphenoxy)propionate], the inhibition in vivo at 10 mg/kg/day came out at 48%.

Take `CC(C)c1ccc(O[C@@H](Cc2ccc(OCCNC(=O)c3ccc(-c4ccccn4)cc3)cc2)C(=O)O)cc1` [Example 104, (S)-2-(4-Isopropylphenoxy)-3-[4-[2-(4-pyridine-2-ylbenzoylamino)ethoxy]phenyl]propionic acid]: the inhibition in vivo at 10 mg/kg/day was determined as 73%.

Take `CC(C)c1ccc(OC(Cc2ccc(OCCNC(=O)c3ccc(-c4ccc(C(F)(F)F)cn4)cc3)cc2)C(=O)O)cc1` (centres unmarked) [Example 107, 2-(4-isopropylphenoxy)-3-[4-[2-[4-(3-trifluoromethylpyridine-6-yl)benzoylamino]ethoxy]phenyl]propionic acid]: the inhibition in vivo at 10 mg/kg/day came to 38%.

For the compound `CC(C)c1ccc(OC(Cc2ccc(OCCNC(=O)c3ccc(-c4ccc([N+](=O)[O-])cn4)cc3)cc2)C(=O)O)cc1` (centres unmarked) [Example 109, 2-(4-Isopropylphenoxy)-3-[4-[2-[4-(3-nitropyridine-6-yl)benzoylamino]ethoxy]phenyl]propionic acid], the inhibition in vivo at 10 mg/kg/day was 38%.

With `COc1ccc(-c2ccc(C(=O)NCCOc3ccc(CC(Oc4ccc(C(C)C)cc4)C(=O)O)cc3)cc2)nc1` (centres unmarked) [Example 111, 2-(4-Isopropylphenoxy)-3-[4-[2-[4-(3-methoxypyridine-6-yl)-benzoylamino]ethoxy]phenyl]propionic acid], the inhibition in vivo at 10 mg/kg/day worked out at 70%.

Turning to `CC(C)c1ccc(OC(Cc2ccc(OCCNC(=O)c3ccc(-c4ccc(N(C)C)cn4)cc3)cc2)C(=O)O)cc1` (centres unmarked) [Example 113, 3-[4-[2-[4-(3-Dimethylaminopyridine-6-yl)benzoylamino]ethoxy]-phenyl]-2-(4-isopropylphenoxy)propionic acid], the inhibition in vivo at 10 mg/kg/day was 64%.

The same experiment, now with this note: compound admixed with powder feed at 0.01% (ca. 10 mg/kg/day) for three days, plasma glucose vs control group.
Turning to `O=C(NCCOc1ccc(CC(Oc2ccccc2)C(=O)O)cc1)c1ccc(-c2ccccn2)cc1` (centres unmarked) [Example 8, 2-Phenoxy-3-[4-[2-(4-pyridine-2-ylbenzoylamino)ethoxy]phenyl]propioric acid], the “Rate of hypoglycemic activity (%) (blood glucose depression rate)” value is 22%.

For `CCCCC(Cc1ccc(OCCNC(=O)c2ccc(N(CC)CC)cc2)cc1)C(=O)O` (centres unmarked) [Example 62, 2-Butyl-3-[4-[2-(4-N,N-dietylaminobenzoylamino)ethoxy]phenyl]propionic acid], the “Rate of hypoglycemic activity (%) (blood glucose depression rate)” value is given as 16%.
